From PMC5017749, “Preclinical Metabolism, Pharmacokinetics and In Vivo Analysis of New Blood-Brain-Barrier Penetrant Fingolimod Analogues: FTY720-C2 and FTY720-Mitoxy” (PLoS ONE, 2016) come the findings set out here.

Data set [1] is described as follows: Metabolite profiling and identification in human hepatocytes. Details: key to Source (peak identified in human hepatocytes): R = Rat; hr = Human; lowercase letter indicates low abundance; h: lowercase letter indicates low abundance. The data set is classed as in vitro ADME. As to conditions: for phosphorylated metabolites / parent peak after 2 hr incubation: human hepatocytes; for parent peak after 2 hr incubation: 1 μM. As to the method: Cryopreserved hepatocytes were grown in culture and incubations were performed to generate samples to measure the formation of FTY720-C2 and FTY720-Mitoxy metabolites. Incubations of 1 mL medium containing 1 million cells and 1 μM of FTY720-C2 and FTY720-Mitoxy were conducted at 37° C in a 5% CO2 incubator for 0, 1 and 2 hr, with gentle shaking. Positive control incubations used a cocktail solution containing 10 μM testosterone and 10 μM diclofenac performed for 0, 1 and 2 hr, under similar conditions to confirm the metabolic activity of the hepatocytes. The reactions were terminated by adding 2 mL acetonitrile containing 0.02% formic acid, and thoroughly mixing with gentle vortexing. Samples were transferred into 6 mL vials and stored in the freezer (-70°C) overnight for protein precipitation. Following overnight precipitations, samples were centrifuged at 3,000 rpm for 10 min to pellet proteins. Supernatants were transferred into clean 6 mL vials and evaporated to dryness using a TurboVap concentrator system. Samples were reconstituted using 600 μL 20% acetonitrile in water, briefly vortexed to resuspend, then aliquoted for LC-MS/MS analysis. Controls incubations also included “No drug control” and “no cell control” samples treated in a similar manner as test article samples.
Metabolite profiling and identification experiments were conducted by LC-MS/MS, composed of an HPLC system consisting of an Agilent Technologies 1200 Series Model G1322A Degasser, Agilent Technologies 1200 Series Model G1312A Binary Pump, Shimadzu HTc autosampler, and Valco Model E60 Flow Diversion Valve, and coupled to an API 4000 mass spectrometer. Separations were accomplished on a Gemini C18 column (150 × 2.0 mm, 5-μm particles; Phenomenex Inc., Torrance, CA), preceded by a SecurityGuard C18 guard column (4.0 × 2.0 mm; Phenomenex Inc.). A two-component mobile phase, consisted of a linear gradient of water containing 0.5% formic acid (v/v) and methanol:acetonitrile (1:1, v/v) containing 0.5% formic acid (v/v), was pumped at 0.3 mL/min. The first 4 min of flow was diverted away from the mass spectrometer. Analysis of the positive control samples was conducted with an HPLC system consisting of two Shimadzu LC-10ATvp pumps and a LEAP Pal autosampler. Separations were accomplished on a Luna C8(2) column (50 × 2.0 mm, 3-μm particles; Phenomenex Inc., Torrance, CA), preceded by a SecurityGuard C18 column (4.0 × 2.0 mm; Phenomenex Inc.). Separation was accomplished with a gradient of water containing 0.2% formic acid and 0.012% NH4OH (v/v) versus acetonitrile at an initial rate of 0.7 mL/min. An API 4000 QTrap mass spectrometer (AB Sciex, Foster City, CA) was used for analysis of positive control samples. Each mass spectrometer used was equipped with an electrospray ionization source and operated in the positive ionization mode. Metabolite identification experiments were performed by recording full scan mass spectral data (Q1MS) for all samples, and selected samples were analyzed to obtain product ion spectra (MS/MS) of test article metabolites identified in the full scan mass spectral data.

A short description of data set [2]: Metabolic stability (intrinsic clearance) in human liver microsomes. The data set is classed as in vitro ADME. The conditions noted are these: for percent of the remaining compound: after 60 minute incubation; for microsomal CLint at 1 μM: pH 7.4, 0.1 mg/mL protein, mean of two determinations. As to the method: (§1) Liver microsomal incubations contained 0.1mg/mL microsomal proteins and 1 μM of FTY720-C2 or FTY720-Mitoxy in 100 mM potassium phosphate buffer (pH 7.4) ± an NADPH regenerating system (3.5 mM glucose 6-phosphate, 1.3 mM NADP^+, and 0.4 units/mL glucose-6-phosphate dehydrogenase). Following incubations, reactions were terminated for analysis after 0, 10, 20, 30, and 60 min by the addition of acetonitrile containing C17 sphingosine (300 ng/mL) as the internal standard. Samples were vigorously mixed and centrifuged at 3,400 rpm for 10 min to pellet precipitated proteins. An aliquot of each supernatant was used for LC/MS analysis, for determination of the remaining FTY720-C2 and FTY720-Mitoxy. Similar incubations were performed using a cocktail solution containing 0.2 μM midazolam and 1 μM diclofenac to determine the metabolic activity of the microsomes as an additional control.
(§2) Samples resulting from liver microsomal incubations were analyzed by LC-MS/MS. Aliquots of the supernatants were injected onto an X-Bridge C18 column (2.1 × 50 mm, 3.5-μm particles) (Waters, Milford, MA), preceded by a SecurityGuard C18 guard column (4.0 × 2.0 mm; Phenomenex Inc.). Separations were accomplished with a gradient of 0.1% acetic acid in water (v/v) versus 0.1% acetic acid in acetonitrile: methanol (75:25, v/v) at a rate of 0.8 mL/min. The eluents were further applied into an equipped API 4000 QTrap mass spectrometer (AB Sciex, Foster City, CA) with electrospray ionization (ESI) interface by two coupled LC-10 AT pumps. Peak area ratios of FTY720-C2 or FTY720-Mitoxy against the C17 sphingosine internal standard were used to determine the amount of parent remaining compared to that at 0 min. The percent of FTY720-C2 or FTY720-Mitoxy remaining was calculated by dividing the peak area ratio obtained at each time point by that obtained at 0 min. The in vitro intrinsic clearance (CLint) was calculated by linear regression of the log percent of compound remaining versus time plots using Microsoft Excel, two independent experiments (n = 2) were performed for each compound and species. Then, the mean and standard deviation (SD), of two values for each condition, were calculated using Microsoft Excel with the “AVERAGE” and “STDEV” functions, respectively.

A short description of data set [3]: Metabolic stability (intrinsic clearance) in rat liver microsomes. The conditions noted are these: for microsomal CLint at 1 μM: Sprague-Dawley, pH 7.4, 0.1 mg/mL protein, mean of two determinations; for microsomal CLint at 1 μM / intrinsic clearance interpreted in words / percent of the remaining compound: rat liver microsomes; for percent of the remaining compound: after 60 minute incubation; for Clint in rat liver microsomes relative to human liver microsomes: rat vs human liver microsomes. The class given is in vitro ADME, rat (Sprague-Dawley). As to the method:
as §1, §2
A general note: Microsomes from liver hold many membrane-bound enzymes, among them those of drug oxidation.

Usually microsomal CLint stands for the capacity of the preparation to metabolise the compound, expressed as a volume cleared per time.

In the case of `CCCCCCCCc1ccc(CCC(CO)(CO)NC(=O)CC[P+](c2ccccc2)(c2ccccc2)c2ccccc2)cc1` [FTY720-Mitoxy, N-(1-hydroxy-2-(hydroxymethyl)-4-(4-octylphenyl)butan-2-yl)-3’-triphenylphosphoniumpropanamide], the “Source (peak identified in human hepatocytes)” value in data set [1] (FTY720-Mitoxy incubation, Table 5) is reported as “H”. In addition, in data set [1], the phosphorylated metabolites result is listed as “never detected” and the “parent peak after 2 hr incubation” value is on record as “most FTY720-Mitoxy was still unchanged”. Also, in data set [2], the “intrinsic clearance interpreted in words” value is given as “moderate”, the “percent of the remaining compound” value turned out to be 35.5 ± 2.3% and the microsomal CLint at 1 μM turned out to be 17.5 ± 1.7 µL/min/mg. Also, in data set [3], the microsomal CLint at 1 μM was determined as 7.8 ± 1.98 µL/min/mg, the “intrinsic clearance interpreted in words” value is on record as “low”, the “percent of the remaining compound” value was 65.5 ± 4.9% and the “Clint in rat liver microsomes relative to human liver microsomes” value is given as “around half”.

Take `CCCCCCCCc1ccc(CCC(CO)(CO)NC(C)=O)cc1` [FTY720-C2, N-(1-hydroxy-2-(hydroxymethyl)-4-(4-octylphenyl)butan-2-yl)acetamide]: the “Source (peak identified in human hepatocytes)” value in data set [1] (FTY720-C2 incubation, Table 4) is listed as “H”. For the same molecule, in data set [1], the phosphorylated metabolites entry is given as “never detected” and the “parent peak after 2 hr incubation” value is “more gradual”. For the same molecule, in data set [2], the “intrinsic clearance interpreted in words” value is reported as “moderate”, the “percent of the remaining compound” value was found to be 33.5 ± 4.5% and the microsomal CLint at 1 μM is 18.3 ± 2.4 µL/min/mg. For the same molecule, in data set [3], the microsomal CLint at 1 μM is 79.5 ± 1.41 µL/min/mg, the “intrinsic clearance interpreted in words” value is “high”, the “percent of the remaining compound” value was determined as 1.0 ± 0% and the “Clint in rat liver microsomes relative to human liver microsomes” value is recorded as ~ 4 fold.
